In experiment [1] the test system is Homo sapiens (human subject panel, olfactory perception). Kind of experiment: perceived odor intensity rating (rating 0-100); higher = stronger perceived smell. The essentials: (§1)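 Values for familiarity, intensity and pleasantness are averaged over subjects. The panel of 55 healthy people aged 18–50 excluded the six lowest performers and rated each paraffin-oil dilution of a molecule at high and low concentrations. Ratings were made only for stimuli the subject reported smelling, on a slider converted to a 0–100 scale.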

Experiment [2] has the same test system. Kind of experiment: perceived odor pleasantness rating (rating 0-100); higher = more pleasant. In short, it runs like this:
as §1

For experiment [3] the test system is unchanged. Kind of experiment: perceived odor familiarity rating (rating 0-100); higher = more familiar. The essentials:
as §1

Where [4] appears, read: odor dilution in paraffin oil: 1/10.
Setting [5] is: odor dilution in paraffin oil: 1/1,000.
Where [6] appears, read: odor dilution in paraffin oil: 1/100,000.
Setting [7] is: odor dilution in paraffin oil: 1/10,000,000.

The structures appear in SMILES notation. Counter-ions that a name gives are not always drawn. ± gives the standard deviation of the averaged measurements.

For the compound `O=C(OCCc1ccccc1)c1ccccc1O` [Phenethyl salicylate], the “perceived odor intensity rating” value was found to be 37.3 ± 31 in experiment [1] (setting [4]) and 17.8 ± 25 in experiment [1] (setting [5]). Besides, the “perceived odor pleasantness rating” value turned out to be 58.9 ± 22 in experiment [2] (setting [4]) and 49.2 ± 22 in experiment [2] (setting [5]). The “perceived odor familiarity rating” value turned out to be 38.8 ± 29 in experiment [3] (setting [4]) and 33.8 ± 29 in experiment [3] (setting [5]).

As for `NCCc1ccccc1` [Phenethylamine], the “perceived odor intensity rating” value in experiment [1] (setting [5]) was determined as 62.9 ± 34; in experiment [1] (setting [6]) it was 22.8 ± 26. Also, the “perceived odor pleasantness rating” value worked out at 29.1 ± 28 in experiment [2] (setting [5]) and 48 ± 25 in experiment [2] (setting [6]). Moreover, the “perceived odor familiarity rating” value in experiment [3] (setting [5]) turned out to be 46.8 ± 34; in experiment [3] (setting [6]) it was 38.8 ± 26.

With `c1ccc(SSc2ccccc2)cc1` [Phenyl disulfide], the “perceived odor intensity rating” value came out at 61.2 ± 26 in experiment [1] (setting [5]) and 52.5 ± 30 in experiment [1] (setting [6]). In addition, the figures for the “perceived odor pleasantness rating” value in experiment [2] (setting [5]) and in experiment [2] (setting [6]) were 26.6 ± 23 and 28.3 ± 25, respectively. Also, the results for the “perceived odor familiarity rating” value in experiment [3] (setting [5]) and in experiment [3] (setting [6]) were 47.2 ± 29 and 43.5 ± 29, respectively.

Regarding `C/C(=C\CO)CCC[C@H](C)CCC[C@H](C)CCCC(C)C` [Phytol], the “perceived odor intensity rating” value in experiment [1] (setting [4]) was 68.8 ± 26; in experiment [1] (setting [5]), 19.8 ± 26. In addition, the “perceived odor pleasantness rating” value in experiment [2] (setting [4]) turned out to be 28.1 ± 21; in experiment [2] (setting [5]), 44.2 ± 30. The “perceived odor familiarity rating” value in experiment [3] (setting [4]) was 47.1 ± 32; in experiment [3] (setting [5]), 25.4 ± 33.

With `C1CCNCC1` [Piperidine], the “perceived odor intensity rating” value worked out at 76.5 ± 24 in experiment [1] (setting [5]) and 28.6 ± 31 in experiment [1] (setting [6]). The “perceived odor pleasantness rating” value in experiment [2] (setting [5]) was determined as 13.2 ± 18; in experiment [2] (setting [6]), 48.2 ± 24. For the same compound, the entries for the “perceived odor familiarity rating” value in experiment [3] (setting [5]) and in experiment [3] (setting [6]) were 53.6 ± 36 and 39.4 ± 29, respectively.

For the compound `O=C(/C=C/C=C/c1ccc2c(c1)OCO2)N1CCCCC1` [Piperine], the results for the “perceived odor intensity rating” value in experiment [1] (setting [4]) and in experiment [1] (setting [5]) were 54.1 ± 29 and 19.4 ± 27, respectively. Besides, the results for the “perceived odor pleasantness rating” value in experiment [2] (setting [4]) and in experiment [2] (setting [5]) were 51.5 ± 26 and 44.9 ± 29, respectively. In addition, the entries for the “perceived odor familiarity rating” value in experiment [3] (setting [4]) and in experiment [3] (setting [5]) were 49.2 ± 31 and 20.9 ± 26, respectively.

For `CC(C)C(=O)OCc1ccc2c(c1)OCO2` [Piperonyl isobutyrate], the “perceived odor intensity rating” value in experiment [1] (setting [5]) was found to be 29.4 ± 27; in experiment [1] (setting [6]), 26.4 ± 30. For the same compound, the “perceived odor pleasantness rating” value in experiment [2] (setting [5]) was 48.3 ± 25; in experiment [2] (setting [6]) it was 43.1 ± 18. In addition, the figures for the “perceived odor familiarity rating” value in experiment [3] (setting [5]) and in experiment [3] (setting [6]) were 38.4 ± 29 and 30.2 ± 25, respectively.

Take `CCCOC(=O)CC` [Propyl propionate]: the results for the “perceived odor intensity rating” value in experiment [1] (setting [5]) and in experiment [1] (setting [6]) were 72.1 ± 21 and 22.9 ± 25, respectively. For the same compound, the entries for the “perceived odor pleasantness rating” value in experiment [2] (setting [5]) and in experiment [2] (setting [6]) were 44.4 ± 26 and 48.7 ± 25, respectively. The “perceived odor familiarity rating” value in experiment [3] (setting [5]) was 50.4 ± 32; in experiment [3] (setting [6]) it was 33.7 ± 27.

As for `CC(O)CO` (stereo not drawn) [Propylene glycol], the “perceived odor intensity rating” value was 45.8 ± 34 in experiment [1] (setting [4]) and 10.5 ± 13 in experiment [1] (setting [5]). The “perceived odor pleasantness rating” value in experiment [2] (setting [4]) was found to be 46.2 ± 25; in experiment [2] (setting [5]), 42.5 ± 25. Further, the “perceived odor familiarity rating” value in experiment [3] (setting [4]) was 52.2 ± 30; in experiment [3] (setting [5]), 33.7 ± 29.

`SCCc1cnccn1` [Pyrazineethanethiol]: the “perceived odor intensity rating” value in experiment [1] (setting [6]) worked out at 33.8 ± 38; in experiment [1] (setting [7]) it was 23.6 ± 22. Also, the “perceived odor pleasantness rating” value in experiment [2] (setting [6]) is 45.4 ± 26; in experiment [2] (setting [7]) it was 49.2 ± 20. Besides, the “perceived odor familiarity rating” value in experiment [3] (setting [6]) was determined as 37.2 ± 33; in experiment [3] (setting [7]), 29.8 ± 25.

On to `C1CCNC1` [Pyrrolidine], for which the results for the “perceived odor intensity rating” value in experiment [1] (setting [6]) and in experiment [1] (setting [7]) were 26.9 ± 26 and 26.6 ± 24, respectively. Besides, the “perceived odor pleasantness rating” value in experiment [2] (setting [6]) came to 40.7 ± 19; in experiment [2] (setting [7]), 37.5 ± 22. Moreover, the “perceived odor familiarity rating” value was 28.9 ± 29 in experiment [3] (setting [6]) and 37.2 ± 27 in experiment [3] (setting [7]).

Take `CC(=O)C(=O)O` [Pyruvic Acid]: the entries for the “perceived odor intensity rating” value in experiment [1] (setting [5]) and in experiment [1] (setting [6]) were 70.6 ± 23 and 37.7 ± 32, respectively. For the same compound, the results for the “perceived odor pleasantness rating” value in experiment [2] (setting [5]) and in experiment [2] (setting [6]) were 39.1 ± 28 and 53.4 ± 24, respectively. For the same compound, the “perceived odor familiarity rating” value was 52.1 ± 29 in experiment [3] (setting [5]) and 44.5 ± 29 in experiment [3] (setting [6]).

On to `c1ccc2ncccc2c1` [Quinoline], for which the “perceived odor intensity rating” value in experiment [1] (setting [5]) was found to be 80.7 ± 18; in experiment [1] (setting [6]), 56.4 ± 27. Further, the “perceived odor pleasantness rating” value stood at 22.4 ± 24 in experiment [2] (setting [5]) and 34.1 ± 24 in experiment [2] (setting [6]). Further, the “perceived odor familiarity rating” value in experiment [3] (setting [5]) was 47.7 ± 34; in experiment [3] (setting [6]), 41.4 ± 26.

As for `O.O.O=P([O-])([O-])O.[Na+].[Na+]` [Sodium phosphate dibasic], the entries for the “perceived odor intensity rating” value in experiment [1] (setting [4]) and in experiment [1] (setting [5]) were 27.2 ± 27 and 24.1 ± 25, respectively. For the same compound, the “perceived odor pleasantness rating” value in experiment [2] (setting [4]) came to 63.4 ± 26; in experiment [2] (setting [5]), 46.2 ± 26. Besides, the “perceived odor familiarity rating” value in experiment [3] (setting [4]) is 40.5 ± 32; in experiment [3] (setting [5]) it was 31.5 ± 24.

Take `O=C(O)CCC(=O)O` [Succinic acid]: the “perceived odor intensity rating” value in experiment [1] (setting [4]) was 46.2 ± 35; in experiment [1] (setting [5]), 32.3 ± 27. Further, the “perceived odor pleasantness rating” value in experiment [2] (setting [4]) came out at 34.6 ± 24; in experiment [2] (setting [5]) it was 36.1 ± 21. The “perceived odor familiarity rating” value was determined as 35.5 ± 25 in experiment [3] (setting [4]) and 35.5 ± 32 in experiment [3] (setting [5]).

For the compound `CC1=CCC(C(C)(C)OC=O)CC1` (stereo not drawn) [Terpinyl formate], the “perceived odor intensity rating” value in experiment [1] (setting [5]) amounted to 42.2 ± 30; in experiment [1] (setting [6]), 14.6 ± 20. Moreover, the results for the “perceived odor pleasantness rating” value in experiment [2] (setting [5]) and in experiment [2] (setting [6]) were 37.8 ± 26 and 46.9 ± 30, respectively. For the same compound, the results for the “perceived odor familiarity rating” value in experiment [3] (setting [5]) and in experiment [3] (setting [6]) were 45.6 ± 31 and 28.1 ± 26, respectively.

With `CC(=O)OCC1CCCO1` (stereo not drawn) [Tetrahydrofurfuryl acetate], the “perceived odor intensity rating” value is 55.6 ± 24 in experiment [1] (setting [5]) and 17 ± 24 in experiment [1] (setting [6]). Further, the “perceived odor pleasantness rating” value is 40.6 ± 26 in experiment [2] (setting [5]) and 49.1 ± 26 in experiment [2] (setting [6]). Besides, the “perceived odor familiarity rating” value worked out at 42.4 ± 28 in experiment [3] (setting [5]) and 27.8 ± 24 in experiment [3] (setting [6]).

Take `OCC1CCCO1` (stereo not drawn) [Tetrahydrofurfuryl alcohol]: the “perceived odor intensity rating” value in experiment [1] (setting [5]) was 29.6 ± 27; in experiment [1] (setting [6]), 18.4 ± 23. Besides, the “perceived odor pleasantness rating” value turned out to be 42.7 ± 25 in experiment [2] (setting [5]) and 45.1 ± 22 in experiment [2] (setting [6]). In addition, the “perceived odor familiarity rating” value in experiment [3] (setting [5]) came out at 30.3 ± 29; in experiment [3] (setting [6]), 40.3 ± 28.

(Values after the supplement of paper PMC4977894.)
